Laboratory results from patent US8530470B2, “Chromenone derivatives” (Astrazeneca AB, priority 2011, dated 2013).
pIC50: −log10 of the molar value. Where two headings read alike, the source gives them in different places.

How the values were obtained:
PI3Kβ = PI3Kβ (Homo sapiens, UniProt P42338); experiment: In vitro enzyme inhibition assay (Kinase Glo), PI3Kβ; type: biochemical; conditions: Test (a)
Experimental: (§1) (a) In Vitro Enzyme Inhibition Assay
(§2) The inhibition of PI3Kβ, PI3Kα, PI3Kγ and PI3Kδ was evaluated in a Kinase Glo based enzyme activity assay using human recombinant enzymes. The assay measures depletion of ATP after incubation with enzyme, PIP2 and ATP plus compound. ATP at the end of the reaction is detected by addition of Kinase Glo reagent, in this the Ultra Glo™ luciferase (Promega) uses the ATP as a substrate to catalyze the mono-oxygenation of luciferin and the generation of light. A direct relationship exists between the luminescence measured with the Kinase-Glo Plus Reagent and the amount of ATP remaining in a completed kinase reaction and luminescence is inversely related to kinase activity. Twelve different compound concentrations were tested and raw data from the inhibition of PI3Kβ, PI3Kα, PI3Kγ and PI3Kδ was plotted versus inhibitor concentration.
(§3) Compounds in 100% DMSO were added to assay plates by acoustic dispensing. PI3β was added in a Tris buffer (50 mM Tris pH7.4, 0.05% CHAPS, 2.1 mM DTT, and 10 mM MgCl2) and allowed to preincubate with compound for 20 min prior to addition of substrate solution containing PIP2 and ATP. The enzyme reaction was stopped after 80 min by the addition of Kinase Glo detection solution. […] The final concentration of DMSO, ATP and PIP2 in the assay were, 1%, 8 μM, and 80 μM respectively.
(§4) IC50 values were calculated using a log curve fitting to a non-linear regression package, fitting raw data to inhibitor concentration.

PI3Kδ = PI3Kδ (Homo sapiens, UniProt O00329); experiment: In vitro enzyme inhibition assay (Kinase Glo), PI3Kδ; type: biochemical; conditions: Test (a)
Chain of PI3Kδ (O00329 whole entry): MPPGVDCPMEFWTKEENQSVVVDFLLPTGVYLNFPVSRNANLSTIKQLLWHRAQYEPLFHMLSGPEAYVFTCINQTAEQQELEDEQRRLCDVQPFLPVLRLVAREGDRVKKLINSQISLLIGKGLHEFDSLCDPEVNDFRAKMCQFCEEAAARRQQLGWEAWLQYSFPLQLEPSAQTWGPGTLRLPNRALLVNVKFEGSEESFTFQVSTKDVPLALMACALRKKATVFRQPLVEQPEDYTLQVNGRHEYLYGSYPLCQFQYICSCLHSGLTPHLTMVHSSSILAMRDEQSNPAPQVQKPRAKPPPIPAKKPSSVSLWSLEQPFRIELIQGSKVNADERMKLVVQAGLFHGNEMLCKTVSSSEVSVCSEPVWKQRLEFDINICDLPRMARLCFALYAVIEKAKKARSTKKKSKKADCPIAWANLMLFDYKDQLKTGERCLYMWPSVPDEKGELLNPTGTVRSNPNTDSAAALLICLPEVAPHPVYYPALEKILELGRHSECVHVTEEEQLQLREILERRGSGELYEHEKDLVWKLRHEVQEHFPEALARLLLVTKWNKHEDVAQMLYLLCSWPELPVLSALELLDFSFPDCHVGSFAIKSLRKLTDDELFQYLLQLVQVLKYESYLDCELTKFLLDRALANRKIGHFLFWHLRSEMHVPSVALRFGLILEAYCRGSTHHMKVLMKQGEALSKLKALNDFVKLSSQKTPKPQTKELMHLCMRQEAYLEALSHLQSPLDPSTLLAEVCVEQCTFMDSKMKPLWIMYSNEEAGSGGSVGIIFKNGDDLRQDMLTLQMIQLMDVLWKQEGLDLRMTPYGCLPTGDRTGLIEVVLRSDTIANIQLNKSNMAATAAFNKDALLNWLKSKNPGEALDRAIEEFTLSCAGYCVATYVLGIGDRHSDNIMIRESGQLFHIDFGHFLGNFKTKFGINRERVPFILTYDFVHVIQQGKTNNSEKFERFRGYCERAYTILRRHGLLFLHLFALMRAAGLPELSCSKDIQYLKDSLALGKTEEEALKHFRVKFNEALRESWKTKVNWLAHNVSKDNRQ
Chain of PI3Kδ (P27986 whole entry partner): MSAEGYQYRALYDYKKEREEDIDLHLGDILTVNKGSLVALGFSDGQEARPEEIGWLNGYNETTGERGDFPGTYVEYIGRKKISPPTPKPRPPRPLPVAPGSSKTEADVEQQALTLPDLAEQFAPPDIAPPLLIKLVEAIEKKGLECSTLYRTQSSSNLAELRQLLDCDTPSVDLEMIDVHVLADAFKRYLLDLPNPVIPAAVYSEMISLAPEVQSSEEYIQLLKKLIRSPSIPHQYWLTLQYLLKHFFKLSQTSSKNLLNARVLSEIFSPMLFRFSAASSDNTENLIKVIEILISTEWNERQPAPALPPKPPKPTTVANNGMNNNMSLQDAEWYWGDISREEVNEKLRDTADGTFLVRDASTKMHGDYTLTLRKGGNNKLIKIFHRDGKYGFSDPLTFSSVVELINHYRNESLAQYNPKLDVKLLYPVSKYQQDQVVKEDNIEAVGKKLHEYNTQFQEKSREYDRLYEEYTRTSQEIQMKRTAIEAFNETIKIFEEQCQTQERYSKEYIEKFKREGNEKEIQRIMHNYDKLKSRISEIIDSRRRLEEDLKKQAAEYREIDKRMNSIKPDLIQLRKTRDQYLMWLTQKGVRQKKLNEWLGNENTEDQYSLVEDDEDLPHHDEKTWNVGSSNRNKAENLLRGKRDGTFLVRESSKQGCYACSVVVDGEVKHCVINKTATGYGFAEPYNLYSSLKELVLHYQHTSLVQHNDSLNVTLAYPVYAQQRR
Experimental: as §1, §2, §3, §4

[1] = test system: phospho AKT (ser473) in MDA-MB-468 cells; experiment: Detection of phospho AKT (ser473) in MDA-MB-468 cells; type: cell-based; conditions: Homo sapiens, Test (b), 2 hours incubation, approximate value, read-out: IC50 versus cellular phospho AKT (ser473) in MDA-MB-468 cells
Experimental: (b) Protocol for Detection of Phospho AKT (ser473) in MDA-MB-468 Cells
MDA-MB-468 cells (human breast adenocarcinoma ATCC HTB 132) are seeded into Greiner 384 well black flat-bottomed plates by automated cell culture robot (Selec T). Cells can also be maintained manually and seeded into plates using multidrop or Wellmate. Cells seeded at 1500 cell/well in 40 μl of DMEN containing 10% FCS and 1% glutamine. Cell plates are incubated for 18 hours in a 37° C. incubator.
Compounds are dosed onto cells using an Echo acoustic dispenser, which dispenses nl quantities of compound or DMSO. Compounds are dosed in a 12 point concentration range from 30 μM top dose, 28 compounds are dosed on one plate. There are 17 DMSO only positive control wells per plate, and 16 negative control well which have been dosed with a concentration of reference compound that will knockout the pAKT signal.
Plates are incubated at 37° C. for 2 hours, cells are the fixed by the addition of 10 μl of a 3.7% Formaldehyde solution in a fume cupboard using a Wellmate.
After 30 min to allow for fixation, the fixative and media are removed and the plates washed with Proclin PBS/A using Tecan PW384 plate washer in a fume cupboard. Wells are blocked and permeabilised with the addition of 40 μl of PBS containing 0.5% Tween20 and 1% marvel using a Wellmate and incubated for 60 min at room temperature.
Permeabilisation and blocking buffer removed using Tecan PW384 plate washer, then 20 μl primary antibody solution added using a Wellmate. The primary antibody solution is a 1:500 dilution of Rabbit anti-phospho AKT Ser 473 (Cell signalling technologies catalogue number #3787) in PBS/T containing 1% marvel (dried milk powder) and incubated overnight at 4° C.
Plates are washed using a Tecan PW384 plate washer three times with Phosphate Buffered Saline+0.05% (v/v) Polysorbate20 and Proclin300 (Supelco). 20 μl of secondary antibody solution is then added to each well using a Wellmate and incubated for 1 hour at Room Temp. The secondary antibody solution is a 1:1000 dilution of Alexa Fluor 488 anti-Rabbit (Molecular Probes cat no A11008) diluted in Phosphate Buffered Saline+0.05% (v/v) Polysorbate20 containing 1% marvel. Plates are washed three times as before then […] added to each well and plates sealed with black plate sealer.
The plates are read on an Acumen reader as soon as possible. Using this system IC50 values can be generated and quality of plates determined by control wells. Reference compounds are run each time to monitor assay performance.

[2] = test system: phosphoinositide (PI) 3-kinase; experiment: Comparison of activity of enantiomers (PI 3-kinase inhibitory activity); type: biochemical; conditions: (+) enantiomer of Example 1.03 compared with the other enantiomer
Description: The synthesis of optically active forms may be carried out by standard techniques of organic chemistry well known in the art, for example by synthesis from optically active starting materials or by resolution of a racemic form. Similarly, the above-mentioned activity may be evaluated using the standard laboratory techniques.
For the avoidance of doubt, the chiral centre in question is the carbon atom at the 2-position of the central pyrrolidine ring that is linked to the chromenone bicyclic ring.

[3] = test system: phospho AKT (ser473) in Jeko cells; experiment: Detection of phospho AKT (ser473) in Jeko cells; type: cell-based; conditions: Homo sapiens; Test (e); anti-IgM stimulated; approximate value; read-out: IC50 versus cellular phospho AKT (ser473) in Jeko cells
Experimental: (e) Protocol for Detection of Phospho AKT (ser473) in Jeko Cells
Compounds at ×10 final concentration in 10 μl of 1% (v/v) DMSO are added to the wells of a Greiner V-bottomed 96 well plate. Compounds are dosed in a 10-point concentration range from 1 μM top dose, 8 compounds are dosed on one plate. There are 8 DMSO positive control wells per plate which have been dosed with vehicle and anti-IgM, and 8 negative control wells which have been dosed with vehicle and assay buffer. Final vehicle concentration is 0.1% DMSO. A reference PI3Kδ selective compound is included in each run. Jeko B cells (human mantle cell lymphoma, ATCC CRL-3006) are seeded into the Greiner 96 well V-bottomed plates containing compounds. Cells are seeded at 100,000 cell/well in 70 μl of RPMI containing 1% glutamine.
Cell plates are incubated for 1 hour in a 37° C. incubator. After this compound pre-incubation time, anti-IgM (F(ab′)2 fragment goat anti-human IgM, Stratech 109-006-129) is added to the plates at ×5 final concentration in 20 μl of assay buffer (RPMI containing 1% glutamine). Final anti-IgM concentration is 0.06 μg/ml or an equivalent EC90 dose. Plates are incubated at 37° C. for 10 min, subsequently plates are immediately placed on ice and centrifuged at […] for 4 min. On ice, supernatants are carefully removed with a manual pipette and 40 μl lysis buffer added. […]

[4] = approximate value, read-out: IC50 versus PI3Kβ
[5] = approximate value, read-out: IC50 versus PI3Kδ
[6] = human recombinant enzyme, ATP 8 μM, PIP2 80 μM, Table A, read-out: PI3Kβ inhibition, IC50
[7] = human recombinant enzyme, Table A, read-out: PI3Kδ inhibition, IC50

Chain of PI3Kβ (P42338 whole entry): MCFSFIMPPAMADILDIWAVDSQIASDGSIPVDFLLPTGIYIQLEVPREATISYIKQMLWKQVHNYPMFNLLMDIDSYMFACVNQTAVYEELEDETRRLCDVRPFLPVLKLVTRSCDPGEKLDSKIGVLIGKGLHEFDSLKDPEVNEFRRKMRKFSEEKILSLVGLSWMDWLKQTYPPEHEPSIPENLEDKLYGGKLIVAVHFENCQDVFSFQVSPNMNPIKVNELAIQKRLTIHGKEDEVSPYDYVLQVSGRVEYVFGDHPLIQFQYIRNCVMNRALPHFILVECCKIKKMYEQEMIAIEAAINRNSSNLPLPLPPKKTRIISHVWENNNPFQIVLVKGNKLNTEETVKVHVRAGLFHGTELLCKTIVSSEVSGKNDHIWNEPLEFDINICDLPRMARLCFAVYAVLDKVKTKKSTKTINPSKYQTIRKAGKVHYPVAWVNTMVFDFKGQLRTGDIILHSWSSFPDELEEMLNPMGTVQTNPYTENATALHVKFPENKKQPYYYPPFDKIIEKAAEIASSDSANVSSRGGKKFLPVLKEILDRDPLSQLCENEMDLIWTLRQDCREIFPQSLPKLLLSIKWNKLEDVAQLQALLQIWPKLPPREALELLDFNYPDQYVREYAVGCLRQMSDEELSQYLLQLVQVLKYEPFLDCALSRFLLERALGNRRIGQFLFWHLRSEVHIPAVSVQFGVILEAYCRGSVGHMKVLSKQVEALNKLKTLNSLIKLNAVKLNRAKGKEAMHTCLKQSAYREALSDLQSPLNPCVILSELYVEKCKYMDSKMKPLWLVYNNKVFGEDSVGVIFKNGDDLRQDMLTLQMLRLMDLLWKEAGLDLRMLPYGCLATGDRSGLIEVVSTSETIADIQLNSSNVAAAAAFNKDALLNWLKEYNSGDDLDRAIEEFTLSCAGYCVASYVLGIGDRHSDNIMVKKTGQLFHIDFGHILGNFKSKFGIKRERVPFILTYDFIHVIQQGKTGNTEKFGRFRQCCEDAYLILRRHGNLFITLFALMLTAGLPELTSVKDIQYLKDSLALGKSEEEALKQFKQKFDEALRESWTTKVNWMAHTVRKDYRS
Chain of PI3Kβ (P27986 whole entry partner): as the sequence (P27986 whole entry partner) above

Structure (SMILES) | pIC50 (PI3Kβ; [4]) | pIC50 (PI3Kδ; [5]) | pIC50 [1] | activity relative to the other enantiomer [2] | pIC50 (PI3Kβ; [6]) | pIC50 (PI3Kδ; [7]) | pIC50 [3]
O=C(c1cc([C@@H]2CCCN2c2cc(F)cc(F)c2)c2oc(N3CCOCC3)cc(=O)c2c1)N1CCOCC1 [Example 1.03a, 8-[(2S)-1-(3,5-difluorophenyl)pyrrolidin-2-yl]-6-(morpholine-4-carbonyl)-2-morpholino-4H-chromen-4-one] | ~6.70 | ~6.55 | ~7.57 | weaker activity | – | – | –
CN1CCN(C(=O)c2cc([C@H]3CCCN3c3cccc(F)c3)c3oc(N4CCOCC4)cc(=O)c3c2)CC1 [Example 1.10, 8-[(2R)-(1-(3-fluorophenyl)pyrrolidin-2-yl)]-6-(4-methylpiperazine-1-carbonyl)-2-morpholino-4H-chromen-4-one] | ~8.10 | ~7.68 | ~8.40 | – | 8.10 | 7.68 | –
C[C@@H]1CN(c2cc(=O)c3cc(C(=O)N4CCOCC4)cc(C4CCCN4c4cccc(F)c4)c3o2)CCO1 (stereo partly drawn) [Example 3.02, 8-(1-(3-fluorophenyl)pyrrolidin-2-yl)-2-((R)-2-methylmorpholino)-6-(morpholine-4-carbonyl)-4H-chromen-4-one] | ~7.85 | ~8.00 | ~8.52 | – | 7.85 | 8.00 | –
O=C(c1cc([C@H]2CCCN2c2cc(F)cc(F)c2)c2oc(N3CCOCC3)cc(=O)c2c1)N1CCOCC1 [Example 1.03b, 8-[(2R)-1-(3,5-difluorophenyl)pyrrolidin-2-yl]-6-(morpholine-4-carbonyl)-2-morpholino-chromen-4-one] | ~8.15 | ~8.05 | ~9.00 | – | 8.15 | 8.05 | ~8.15
